Source: ChEMBL document CHEMBL4725258, “2β-3,4-Unsaturated sialic acid derivatives: Synthesis optimization, and biological evaluation as Newcastle disease virus hemagglutinin-neuraminidase inhibitors” (Bioorg Med Chem, 2020)

What was measured:
[1] = Inhibition of Newcastle disease virus neuraminidase using 4-MUNeu5Ac as substrate incubated for 15 mins by spectrofluorometric analysis; set-up: species or system avian paramyxovirus 1
Sialidase-3 = target: T1, Sialidase-3 (Homo sapiens, UniProt Q9UQ49); test: Inhibition of human NEU3 expressed in HEK293A cells as substrate incubated for 1 hr by spectrofluorometric analysis; set-up: species or system HEK293
T1 sequence (Q9UQ49 whole entry): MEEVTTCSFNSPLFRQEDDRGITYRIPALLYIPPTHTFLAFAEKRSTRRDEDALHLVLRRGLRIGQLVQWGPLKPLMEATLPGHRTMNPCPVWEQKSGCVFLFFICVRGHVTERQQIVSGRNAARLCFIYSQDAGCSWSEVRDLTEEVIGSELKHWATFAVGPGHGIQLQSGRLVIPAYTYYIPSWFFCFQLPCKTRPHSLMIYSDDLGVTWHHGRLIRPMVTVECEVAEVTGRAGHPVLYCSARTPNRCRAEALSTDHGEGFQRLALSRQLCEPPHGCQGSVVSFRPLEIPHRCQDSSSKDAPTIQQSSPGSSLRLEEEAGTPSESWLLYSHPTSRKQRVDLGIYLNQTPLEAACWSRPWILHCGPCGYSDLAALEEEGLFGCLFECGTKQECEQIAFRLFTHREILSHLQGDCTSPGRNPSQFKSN

[N-]=[N+]=N[C@H]1C=C(C(=O)O)O[C@@H]([C@H](O)[C@H](O)CO)[C@@H]1NC(=O)C(F)(F)C(F)(F)C(F)(F)F
IC50 [1]: 0.213 µM

CCO[C@@]1(C(=O)O)C=C[C@@H](NC(C)=O)[C@H]([C@H](O)[C@H](O)CO)O1
IC50 (Sialidase-3): > 1000 µM
IC50 [1]: 384 µM

CCCCO[C@@]1(C(=O)O)C=C[C@@H](NC(C)=O)[C@H]([C@H](O)[C@H](O)CO)O1
IC50 (Sialidase-3): > 1000 µM
IC50 [1]: 485 µM

CC(=O)N[C@@H]1C=C[C@](OC(C)C)(C(=O)O)O[C@H]1[C@H](O)[C@H](O)CO
IC50 (Sialidase-3): > 1000 µM
IC50 [1]: 511 µM

CO[C@@]1(C(=O)O)C=C[C@@H](NC(C)=O)[C@H]([C@H](O)[C@H](O)CO)O1
IC50 (Sialidase-3): > 1000 µM
IC50 [1]: > 1000 µM

CCCO[C@@]1(C(=O)O)C=C[C@@H](NC(C)=O)[C@H]([C@H](O)[C@H](O)CO)O1
IC50 (Sialidase-3): > 1000 µM
IC50 [1]: 512 µM

CCS[C@@]1(C(=O)O)C=C[C@@H](NC(C)=O)[C@H]([C@H](O)[C@H](O)CO)O1
IC50 (Sialidase-3): > 1000 µM
IC50 [1]: 248 µM

CCS[C@]1(C(=O)O)C=C[C@@H](NC(C)=O)[C@H]([C@H](O)[C@H](O)CO)O1
IC50 (Sialidase-3): > 1000 µM
IC50 [1]: 100 µM

CO[C@]1(C(=O)O)C=C[C@@H](NC(C)=O)[C@H]([C@H](O)[C@H](O)CO)O1
IC50 (Sialidase-3): > 1000 µM
IC50 [1]: > 1000 µM

CC(=O)N[C@H]1[C@H]([C@H](O)[C@H](O)CO)OC(C(=O)O)=C[C@@H]1O [NEU5AC2EN]
IC50 (Sialidase-3): 2.4 µM
IC50 [1]: 13 µM

CC(=O)N[C@@H]1C=C[C@@](OC(C)C)(C(=O)O)O[C@H]1[C@H](O)[C@H](O)CO
IC50 (Sialidase-3): > 1000 µM
IC50 [1]: 148 µM

CCCCCCCCS[C@@]1(C(=O)O)C=C[C@@H](NC(C)=O)[C@H]([C@H](O)[C@H](O)CO)O1
IC50 (Sialidase-3): > 1000 µM
IC50 [1]: 406 µM

O=C(O)C1=C[C@H](O)[C@@H](NC(=O)C(F)(F)F)[C@H]([C@H](O)[C@H](O)CO)O1
IC50 (Sialidase-3): 3.9 µM
IC50 [1]: 2.45 µM
